# Measured values: US6949669B2, “Organic compounds” (Syngenta Crop Protection, Inc., priority 2000, dated 2005)
# What was measured:
# Format in all cases: in vivo
# Stellaria [1] = experiment: Post-emergence herbicidal action (Example B2); settings: 1 kg/ha, post-emergence at 2- to 3-leaf stage, evaluated 2 to 3 weeks later, rating scale 1-9 (1=total damage, 9=no action)
# From the text: (§1) Post-emergence Herbicidal Action Monocot and dicot test plants are sown in standard soil in plastic pots. At the 2- to 3-leaf stage, the test plants are sprayed with test substances as an aqueous suspension [prepared from a wettable powder (Example F3, b) of WO 97/34485)] or as an emulsion [prepared from an emulsion concentrate (Example F1 c) of WO 97/34485)] in an optimal dosage (500 l of water/ha). The test plants are then cultivated in the greenhouse under optimum conditions. The test is evaluated 2 to 3 weeks later on a rating scale of 1-9 (1=total damage, 9=no action). Ratings of 1 to 4 (especially 1 to 3) denote good to very good herbicidal action.
# Chenopodium [2] = experiment: Post-emergence herbicidal action (Example B2); design: key: 1=total damage; 9=no action; settings: 1 kg/ha, post-emergence at 2- to 3-leaf stage, evaluated 2 to 3 weeks later, rating scale 1-9 (1=total damage, 9=no action)
# From the text: as §1
# Amaranthus [3] = experiment: Post-emergence herbicidal action (Example B2); design: key: 1=total damage; 9=no action; settings: 1 kg/ha, post-emergence at 2- to 3-leaf stage, evaluated 2 to 3 weeks later, rating scale 1-9 (1=total damage, 9=no action)
# From the text: as §1
# Chenopodium [4] = experiment: Pre-emergence herbicidal action (Example B1); design: key: 1=total damage; 9=no action; settings: 1 kg/ha, evaluated 4 weeks later, rating scale 1-9 (1=total damage, 9=no action)
# Description: (§2) Pre-emergence Herbicidal Action Monocot and dicot test plants are sown in standard soil in plastic pots. Immediately after sowing, the test substances are sprayed on as an aqueous suspension [prepared from a wettable powder (Example F3, b) of WO 97/34485)] or as an emulsion [prepared from an emulsion concentrate (Example F1 c) of WO 97/34485)] in an optimal dosage (500 l of water/ha). The test plants are then cultivated in the greenhouse under optimum conditions. The test is evaluated 4 weeks later on a rating scale of 1-9 (1=total damage, 9=no action). Ratings of 1 to 4 (especially 1 to 3) denote good to very good herbicidal action.
# Digitaria = experiment: Pre-emergence herbicidal action (Example B1); design: key: 1=total damage; 9=no action; settings: 1 kg/ha, evaluated 4 weeks later, rating scale 1-9 (1=total damage, 9=no action)
# Description: as §2
# Setaria = experiment: Pre-emergence herbicidal action (Example B1); design: key: 1=total damage; 9=no action; settings: 1 kg/ha, evaluated 4 weeks later, rating scale 1-9 (1=total damage, 9=no action)
# Description: as §2
# Stellaria [5] = experiment: Pre-emergence herbicidal action (Example B1); design: key: 1=total damage; 9=no action; settings: 1 kg/ha, evaluated 4 weeks later, rating scale 1-9 (1=total damage, 9=no action)
# Description: as §2
# Veronica = experiment: Pre-emergence herbicidal action (Example B1); design: key: 1=total damage; 9=no action; settings: 1 kg/ha, evaluated 4 weeks later, rating scale 1-9 (1=total damage, 9=no action)
# Description: as §2
# Panicum = experiment: Pre-emergence herbicidal action (Example B1); design: key: 1=total damage; 9=no action; settings: 1 kg/ha, evaluated 4 weeks later, rating scale 1-9 (1=total damage, 9=no action)
# Description: as §2
# Amaranthus [6] = experiment: Pre-emergence herbicidal action (Example B1); design: key: 1=total damage; 9=no action; settings: 1 kg/ha, evaluated 4 weeks later, rating scale 1-9 (1=total damage, 9=no action)
# Description: as §2
SMILES,"Postemergence test rating, Stellaria (Stellaria [1])","Postemergence test rating, Chenopodium (Chenopodium [2])","Postemergence test rating, Amaranthus (Amaranthus [3])","Preemergence test rating, Chenopodium (Chenopodium [4])","Preemergence test rating, Digitaria (Digitaria)","Preemergence test rating, Setaria (Setaria)","Preemergence test rating, Stellaria (Stellaria [5])","Preemergence test rating, Veronica (Veronica)","Preemergence test rating, Panicum (Panicum)","Preemergence test rating, Amaranthus (Amaranthus [6])"
COc1cc(C#N)ccc1OCC#Cc1cccc(Cl)c1 [Entry 1.095],2,2,1,,,,,,,
COc1cc(C#N)ccc1OCC#Cc1ccc(Cl)cc1 [Compound 1.098],2,1,1,1,3,1,1,1,1,1
COc1cc(C#N)ccc1OCC#Cc1cccc(CC#N)c1 [Compound 1.109],2,4,1,1,1,6,1,1,1,1
COc1cc([N+](=O)[O-])ccc1OCC#Cc1cccc(CC#N)c1 [Compound 1.198],3,1,1,1,1,3,1,1,1,1
COc1ccccc1OCC#Cc1cccc(CC#N)c1 [Compound 1.033],2,2,4,1,1,2,1,1,2,1
COc1cc(CC#N)ccc1OCC#Cc1cccc(CC#N)c1 [Compound 1.168],,,,2,3,4,1,4,1,1
COc1cc(C#N)ccc1OCC#Cc1cccc(Br)c1 [Compound 1.104],3,2,2,1,7,4,1,1,7,1
